According to patent publication US20250304705A1, “BIOTIN ORTHOGONAL STREPTAVIDIN SYSTEM” (UNIVERSITY OF UTAH RESEARCH FOUNDATION, priority 2022, published 2025):

What was measured:
[1] = target: T1, L-SA (recombinant SA, Novus Biologicals) (Streptomyces avidinii, UniProt P22629); experiment: isothermal titration calorimetry (ITC), biotin enantiomer titrated into recombinant L-SA; format: binding; details: fit using Origin software
T1 construct: purchased Novus Biologicals
Protocol: First, a control isothermal titration calorimetry (ITC) experiment was performed.

[2] = tested on: D-SA; experiment: binding of D-biotin to D-SA, by mirror-image symmetry from L-biotin/L-SA ITC; details: orthogonality, inferred by mirror-image symmetry
Source text: As detailed herein, mirror-image SA and biotin (D-SA/L-biotin) offer an elegant solution to circumvent the limitations encountered with L-SA/D-biotin systems. For example, D-proteins are inert to L-proteases and therefore cannot be digested for MHC presentation to the immune system. […] Therefore, it is proposed that D-SA/L-biotin can be used as a biotin orthogonal streptaviding system (BOSS). Without wishing to be bound by theory, it is hypothesized that the orthogonality of BOSS, along with D-SA's low immunogenicity, will overcome the limitations of natural SA/biotin.
First, a control isothermal titration calorimetry (ITC) experiment was performed. […] This titration data was fit using Origin software to calculate binding stoichiometry (N=0.97±0.003 sites) and enthalpy (ΔH=−27.72±0.18 kcal/mol), as shown in FIG. 2A.

T1 sequence (P22629 37-163): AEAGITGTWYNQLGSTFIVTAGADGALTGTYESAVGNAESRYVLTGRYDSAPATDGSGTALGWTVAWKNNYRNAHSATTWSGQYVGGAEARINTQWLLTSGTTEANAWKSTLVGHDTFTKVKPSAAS

## O=C(O)CCCC[C@@H]1SC[C@@H]2NC(=O)N[C@@H]21 [D-biotin]
[1]
  enthalpy (ΔH): -27.72 ± 0.18 kcal/mol
[2]
  binding to D-SA: minimal binding
